Laboratory results as given in patent US12478638B2, “Polymers, compositions and methods for treating hyperuricemia” (WATERSTONE PHARMACEUTICALS (WUHAN) CO., LTD., priority 2021, dated 2025).

System: rat model of hyperuricemia induced by adenine (100 mg/kg)+ethambutol (250 mg/kg)
Test: Rat model of hyperuricemia induced by adenine + ethambutol; serum UA, CREA, UREA
Type: in vivo
Experimental: 40 rats were randomly divided into 5 groups with 8 rats in each group. The groups were as follows: Blank Group (Vehicle, ig); Model Group (Vehicle, ig); Positive control group (Allopurinol, 10 mg/kg, ig); Compound 1 group (Sevelamer carbonate, 250 mg/kg, ig); Compound 2 group (PAA polymer, 50 mg/kg, ig). Except for Blank group, rats in other groups were modeled according to the chronic modeling method. The modeling method was as follows: rats were given Adenine (100 mg/kg)+Ethambutol (250 mg/kg) by gavage, once a day, for 21 days. Animals in blank group and model group were given equal volume of normal saline by gavage. Animals in positive control group were given 10 mg/kg Alloalcohol by gavage, once in the first week, once in the second week, once a day for 3 days before sampling in the third week. Animals in each group were given intragastric administration once a day for 14 consecutive days from the 8th day of modeling. Blood samples were taken at Day 21 after modeling, and serum samples were separated and stored at −80[…] for biochemical detection.
After 21 days of modeling (14 days of drug treatment), blood samples were taken and serum separation was performed to detect three renal functions (UA, CREA and UREA) (See Table 1 and FIGS. 1a to 1c). Compound 1 is Sevelamer carbonate and Compound 2 is a polyallylamine-based copolymer having a general structure of formula (4) as described herein.

[1] = after 21 days of modeling, adenine + ethambutol model
[2] = serum, after 21 days of modeling (14 days of administration), ig, Allopurinol 10 mg/kg, Compound 1 250 mg/kg, Compound 2 50 mg/kg

Compound: Oc1ncnc2[nH]ncc12 [Allopurinol]
- level of CREA compared with the model group (in words) [1]: significantly reduced
- level of UA compared with the model group (in words) [1]: significantly reduced
- level of UREA compared with the model group (in words) [1]: significantly reduced
- CREA [2]: 54.73 ± 4.75 ^ μmol/L
- UA [2]: 12.88 ± 6.01 µmol/L
- UREA [2]: 5.82 ± 1.10 mmol/L
